Data reported in the OligoGym collection.
Values joined by “and” are separate entries in the source; they are usually repeats but may differ in a detail not shown here. Equal values may be shown once. After the bases stand the sugars from the 5' end (letter, count) and the backbone: PS all phosphorothioate, else s phosphorothioate and o phosphodiester by linkage. Methylation of C is not given here. e = 2'-O-(2-methoxyethyl) (MOE); k = constrained ethyl (cEt); d = 2'-deoxy (DNA)

Target: APOL1
Conditions: ASO

Sequence | target mRNA inhibition (A431, 0.0156 µM) [%] | target mRNA inhibition (A431, 0.0625 µM) | target mRNA inhibition (A431, 0.25 µM) | target mRNA inhibition (A431, 1 µM) | target mRNA inhibition (A431, 2 µM) [%] | target mRNA inhibition (A431, 0.04 µM)
ACTTTACATGCACGAT (sugars kkdddddddddekeke, PS) | 8 | 25% | 58% | 84% | – | –
GTTTTATGGAGTCATT (sugars k4 d9 k3, PS) | – | 51% and 34% | 78% and 70% | 92% and 84% | – | –
GCTTTAAACTCAGGTG (sugars kkkddddkekeddddd, PS) | – | – | – | – | 82 | –
TGTTATATTTGATCCT (sugars kkddddkdkdkddddd, PS) | – | – | – | – | 86 | –
TTCAGCTAAGACCAGT (sugars k4 d9 k3, PS) | – | 35% | 71% | 88% | – | –
GAGTCATTAGTGCTAT (sugars k4 d9 k3, PS) | – | 53% | 77% | 85% | – | –
CGTCAATATATTCTTT (sugars kkddddekekeddddd, PS) | – | – | – | – | 90 | –
GCTTTAAACTCAGGTG (sugars kkddddekekeddddd, PS) | 14 | 41% | 62% | 86% | 92 | –
CAGTTTTGTAAGTGCA (sugars kdddddkekekddddd, PS) | 0 | 52% | 79% | 91% | 92 | –
CGCAATGCTGACTTGG (sugars kkddddekekeddddd, PS) | 22 | 48% | 80% | 93% | 94 | –
TCATAGATACTCCTCA (sugars k3 d10 k3, PS) | 8 | 17% | 51% | 80% | – | –
ACACATCATTGGGTTA (sugars kkddddkdkdkddddd, PS) | – | – | – | – | 57 | –
TTTGTAAGTGCAACCA (sugars k4 d9 k3, PS) | – | 70% | 91% | 97% and 96% and 93% | – | 37% and 23%
CTCATTATCAGTCAGC (sugars k4 d9 k3, PS) | – | 57% | 65% | 64% | – | –
GCAATGCTGACTTGGC (sugars kkddddkekekkdddd, PS) | 5 | 12% | 44% | 80% | 91 | –
AAGTATTGCCAGCTAA (sugars kkddddekekeddddd, PS) | – | – | – | – | 49 | –

Sequence | target mRNA inhibition (A431, 0.0156 µM) [%] | target mRNA inhibition (A431, 0.0625 µM) | target mRNA inhibition (A431, 0.25 µM) | target mRNA inhibition (A431, 1 µM) | target mRNA inhibition (A431, 2 µM) [%] | target mRNA inhibition (A431, 0.04 µM)
TTTATACCAGTGTCTT (sugars kkkddddkekekdddd, PS) | – | – | – | – | 76 | –
ATCCTGGGCGGCGACA (sugars k4 d9 k3, PS) | – | 35% and 28% | 62% and 50% | 82% and 72% | – | –
TTGTAAGTGCAACCAA (sugars kkddddekekeddddd, PS) | – | – | – | – | 87 | –
AACTTTACCTCACCCT (sugars k4 d9 k3, PS) | – | 35% | 68% | 88% | – | –
GAATTATGGAATTGCA (sugars kkddddkekekddddd, PS) | – | – | – | – | 51 | –
ATTCTCATGGTACAGG (sugars kkkddddkekekdddd, PS) | – | – | – | – | 70 | –
AGTATTGTTTTTGTGG (sugars kkddddekekeddddd, PS) | – | – | – | – | 89 | –
TAAGTGCTTTGATTCG (sugars k4 d9 k3, PS) | – | 64% and 82% | 87% and 92% | 94% and 96% | – | –
ACACATCATTGGGTTA (sugars kdddddkekekddddd, PS) | – | – | – | – | 47 | –
GGGAATTATGGAATTG (sugars k4 d9 k3, PS) | – | 48% and 59% | 70% and 67% | 80% and 77% | – | –
GTTCTAACTCTTGGGC (sugars kdddddkekekddddd, PS) | – | – | – | – | 28 | –
GGAAATGAACGCAATG (sugars k4 d9 k3, PS) | – | 37% | 71% | 87% | – | –
TGTTATATTTGATCCT (sugars kekddddeekkddddd, PS) | 31 | 40% | 70% | 89% | 94 | –
AAGATTGGCTCTGGCT (sugars k2 d4 e3 k2 d5, PS) | – | – | – | – | 63 | –
CAACACATCATTGGGT (sugars kkddddekekeddddd, PS) | – | – | – | – | 80 | –
GTGTATTTCTTGATGT (sugars k2 d4 e3 k2 d5, PS) | 18 | 51% | 79% | 91% | 96 | –
